Activity calls are given as the source filed them. The calls are words filed in the database; no cut-off is given here.
What was measured:
[1] = test system: Malme-3M; assay: Growth inhibition of human MALME-3M cells at 10 uM after 48 hrs by sulforhodamine B assay; format: functional; details: read-out: GI
[2] = test system: LOX IMVI; assay: Growth inhibition of human LOXIMVI cells at 10 uM after 48 hrs by sulforhodamine B assay; format: functional
[3] = test system: U-251; assay: Growth inhibition of human U251 cells at 10 uM after 48 hrs by sulforhodamine B assay; format: functional
[4] = test system: SNB-75; assay: Growth inhibition of human SNB75 cells at 10 uM after 48 hrs by sulforhodamine B assay; format: functional
[5] = test system: SNB-19; assay: Growth inhibition of human SNB19 cells at 10 uM after 48 hrs by sulforhodamine B assay; format: functional
[6] = test system: SF-539; assay: Growth inhibition of human SF539 cells at 10 uM after 48 hrs by sulforhodamine B assay; format: functional
[7] = test system: SF-295; assay: Growth inhibition of human SF295 cells at 10 uM after 48 hrs by sulforhodamine B assay; format: functional
[8] = test system: SF-268; assay: Growth inhibition of human SF268 cells at 10 uM after 48 hrs by sulforhodamine B assay; format: functional
[9] = test system: KM12; assay: Growth inhibition of human KM12 cells at 10 uM after 48 hrs by sulforhodamine B assay; format: functional
[10] = test system: SW-620; assay: Growth inhibition of human SW620 cells at 10 uM after 48 hrs by sulforhodamine B assay; format: functional
[11] = test system: HT-29; assay: Growth inhibition of human HT-29 cells at 10 uM after 48 hrs by sulforhodamine B assay; format: functional
[12] = test system: HCT-15; assay: Growth inhibition of human HCT15 cells at 10 uM after 48 hrs by sulforhodamine B assay; format: functional; details: HCT-15, 48 h, read-out: GI
[13] = test system: HCT-116; assay: Growth inhibition of human HCT116 cells at 10 uM after 48 hrs by sulforhodamine B assay; format: functional; details: HCT-116, 48 h, read-out: GI
[14] = test system: HCC 2998; assay: Growth inhibition of human HCC2998 cells at 10 uM after 48 hrs by sulforhodamine B assay; format: functional
[15] = test system: COLO 205; assay: Growth inhibition of human COLO205 cells at 10 uM after 48 hrs by sulforhodamine B assay; format: functional
[16] = test system: NCI-H522; assay: Growth inhibition of human NCI-H522 cells at 10 uM after 48 hrs by sulforhodamine B assay; format: functional
[17] = test system: NCI-H460; assay: Growth inhibition of human NCI-H460 cells at 10 uM after 48 hrs by sulforhodamine B assay; format: functional
[18] = test system: NCI-H322M; assay: Growth inhibition of human NCI-H322M cells at 10 uM after 48 hrs by sulforhodamine B assay; format: functional; details: read-out: GI
[19] = test system: NCI-H23; assay: Growth inhibition of human NCI-H23 cells at 10 uM after 48 hrs by sulforhodamine B assay; format: functional
[20] = test system: NCI-H226; assay: Growth inhibition of human NCI-H226 cells at 10 uM after 48 hrs by sulforhodamine B assay; format: functional
[21] = test system: HOP-62; assay: Growth inhibition of human HOP62 cells at 10 uM after 48 hrs by sulforhodamine B assay; format: functional
[22] = test system: EKVX; assay: Growth inhibition of human EKVX cells at 10 uM after 48 hrs by sulforhodamine B assay; format: functional
[23] = test system: A549; assay: Growth inhibition of human A549/ATCC cells at 10 uM after 48 hrs by sulforhodamine B assay; format: functional
[24] = test system: SR; assay: Growth inhibition of human SR cells at 10 uM after 48 hrs by sulforhodamine B assay; format: functional; details: read-out: GI
[25] = test system: RPMI-8226; assay: Growth inhibition of human RPMI8226 cells at 10 uM after 48 hrs by sulforhodamine B assay; format: functional
[26] = test system: MOLT-4; assay: Growth inhibition of human MOLT4 cells at 10 uM after 48 hrs by sulforhodamine B assay; format: functional; details: MOLT-4, 48 h, read-out: GI
[27] = test system: HL-60(TB); assay: Growth inhibition of human HL-60(TB) cells at 10 uM after 48 hrs by sulforhodamine B assay; format: functional
[28] = test system: CCRF-CEM; assay: Growth inhibition of human CCRF-CEM cells at 10 uM after 48 hrs by sulforhodamine B assay; format: functional
[29] = target: Carbonic anhydrase 9 (Homo sapiens, UniProt Q16790); assay: Inhibition of human carbonic anhydrase 9 after 15 mins by stopped flow CO2 hydration assay
[30] = test system: T47D; assay: Growth inhibition of human T47D cells at 10 uM after 48 hrs by sulforhodamine B assay; format: functional
[31] = test system: BT-549; assay: Growth inhibition of human BT549 cells at 10 uM after 48 hrs by sulforhodamine B assay; format: functional
[32] = test system: Hs-578T; assay: Growth inhibition of human Hs 578T cells at 10 uM after 48 hrs by sulforhodamine B assay; format: functional
[33] = test system: MDA-MB-231; assay: Growth inhibition of human MDA-MB-231 cells at 10 uM after 48 hrs by sulforhodamine B assay; format: functional
[34] = test system: MCF7; assay: Growth inhibition of human MCF7 cells at 10 uM after 48 hrs by sulforhodamine B assay; format: functional; details: MCF7, 48 h, read-out: GI
[35] = test system: DU-145; assay: Growth inhibition of human DU145 cells at 10 uM after 48 hrs by sulforhodamine B assay; format: functional
[36] = test system: PC-3; assay: Growth inhibition of human PC3 cells at 10 uM after 48 hrs by sulforhodamine B assay; format: functional
[37] = test system: UO-31; assay: Growth inhibition of human UO31 cells at 10 uM after 48 hrs by sulforhodamine B assay; format: functional; details: UO-31, 48 h, read-out: GI
[38] = test system: TK-10; assay: Growth inhibition of human TK10 cells at 10 uM after 48 hrs by sulforhodamine B assay; format: functional
[39] = test system: SN12C; assay: Growth inhibition of human SN12C cells at 10 uM after 48 hrs by sulforhodamine B assay; format: functional
[40] = test system: RXF 393; assay: Growth inhibition of human RXF393 cells at 10 uM after 48 hrs by sulforhodamine B assay; format: functional
[41] = test system: CAKI-1; assay: Growth inhibition of human CAKI-1 cells at 10 uM after 48 hrs by sulforhodamine B assay; format: functional; details: CAKI-1, 48 h, read-out: GI
[42] = test system: ACHN; assay: Growth inhibition of human ACHN cells at 10 uM after 48 hrs by sulforhodamine B assay; format: functional
[43] = test system: A498; assay: Growth inhibition of human A498 cells at 10 uM after 48 hrs by sulforhodamine B assay; format: functional
[44] = test system: 786-0; assay: Growth inhibition of human 786-0 cells at 10 uM after 48 hrs by sulforhodamine B assay; format: functional
[45] = test system: SK-OV-3; assay: Growth inhibition of human SKOV3 cells at 10 uM after 48 hrs by sulforhodamine B assay; format: functional
[46] = test system: NCI/ADR-RES; assay: Growth inhibition of human NCI-ADR-RES cells at 10 uM after 48 hrs by sulforhodamine B assay; format: functional
[47] = test system: OVCAR-8; assay: Growth inhibition of human OVCAR8 cells at 10 uM after 48 hrs by sulforhodamine B assay; format: functional; details: OVCAR-8, 48 h, read-out: GI
[48] = test system: OVCAR-5; assay: Growth inhibition of human OVCAR5 cells at 10 uM after 48 hrs by sulforhodamine B assay; format: functional
[49] = test system: OVCAR-4; assay: Growth inhibition of human OVCAR4 cells at 10 uM after 48 hrs by sulforhodamine B assay; format: functional
[50] = test system: OVCAR-3; assay: Growth inhibition of human OVCAR3 cells at 10 uM after 48 hrs by sulforhodamine B assay; format: functional
[51] = test system: IGROV-1; assay: Growth inhibition of human IGROV1 cells at 10 uM after 48 hrs by sulforhodamine B assay; format: functional
[52] = test system: UACC-62; assay: Growth inhibition of human UACC62 cells at 10 uM after 48 hrs by sulforhodamine B assay; format: functional
[53] = test system: UACC-257; assay: Growth inhibition of human UACC257 cells at 10 uM after 48 hrs by sulforhodamine B assay; format: functional
[54] = test system: SK-MEL-5; assay: Growth inhibition of human SK-MEL-5 cells at 10 uM after 48 hrs by sulforhodamine B assay; format: functional
[55] = test system: SK-MEL-28; assay: Growth inhibition of human SK-MEL-28 cells at 10 uM after 48 hrs by sulforhodamine B assay; format: functional, cell-based
[56] = test system: SK-MEL-2; assay: Growth inhibition of human SK-MEL-2 cells at 10 uM after 48 hrs by sulforhodamine B assay; format: functional
[57] = test system: MDA-MB-435; assay: Growth inhibition of human MDA-MB-435 cells at 10 uM after 48 hrs by sulforhodamine B assay; format: functional
[58] = test system: M14; assay: Growth inhibition of human M14 cells at 10 uM after 48 hrs by sulforhodamine B assay; format: functional; details: M14, 48 h, read-out: GI

NS(=O)(=O)c1cnccc1N1CCN(c2ccccc2F)CC1
inhibition of growth at 10 µM [1]: 4%
growth inhibition (GI) [2]: inactive
growth inhibition (GI) [3]: inactive
growth inhibition (GI) [4]: inactive
growth inhibition (GI) [5]: inactive
growth inhibition (GI) [6]: inactive
growth inhibition (GI) [7]: inactive
growth inhibition (GI) [8]: inactive
growth inhibition (GI) [9]: inactive
growth inhibition (GI) [10]: inactive
growth inhibition (GI) [11]: inactive
inhibition of growth at 10 µM [12]: 1%
inhibition of growth at 10 µM [13]: 3%
growth inhibition (GI) [14]: inactive
growth inhibition (GI) [15]: inactive
growth inhibition (GI) [16]: inactive
growth inhibition (GI) [17]: inactive
inhibition of growth at 10 µM [18]: 7%
growth inhibition (GI) [19]: inactive
growth inhibition (GI) [20]: inactive
growth inhibition (GI) [21]: inactive
growth inhibition (GI) [22]: inactive
growth inhibition (GI) [23]: inactive
inhibition of growth at 10 µM [24]: 6%
growth inhibition (GI) [25]: inactive
inhibition of growth at 10 µM [26]: 2%
growth inhibition (GI) [27]: inactive
growth inhibition (GI) [28]: inactive
Ki [29]: 148 nM
growth inhibition (GI) [30]: inactive
growth inhibition (GI) [31]: inactive
growth inhibition (GI) [32]: inactive
growth inhibition (GI) [33]: inactive
inhibition of growth at 10 µM [34]: 6%
growth inhibition (GI) [35]: inactive
growth inhibition (GI) [36]: inactive
inhibition of growth at 10 µM [37]: 13%
growth inhibition (GI) [38]: inactive
growth inhibition (GI) [39]: inactive
growth inhibition (GI) [40]: inactive
inhibition of growth at 10 µM [41]: 3%
growth inhibition (GI) [42]: inactive
growth inhibition (GI) [43]: inactive
growth inhibition (GI) [44]: inactive
growth inhibition (GI) [45]: inactive
growth inhibition (GI) [46]: inactive
inhibition of growth at 10 µM [47]: 2%
growth inhibition (GI) [48]: inactive
growth inhibition (GI) [49]: inactive
growth inhibition (GI) [50]: inactive
growth inhibition (GI) [51]: inactive
growth inhibition (GI) [52]: inactive
growth inhibition (GI) [53]: inactive
growth inhibition (GI) [54]: inactive
growth inhibition (GI) [55]: inactive
growth inhibition (GI) [56]: inactive
growth inhibition (GI) [57]: inactive
inhibition of growth at 10 µM [58]: 5%

NS(=O)(=O)c1cnccc1N1CCN(c2ccc(F)cc2)CC1
Ki [29]: 239 nM

Source: ChEMBL document CHEMBL2434896, “Carbonic anhydrase inhibitors. Synthesis of heterocyclic 4-substituted pyridine-3-sulfonamide derivatives and their inhibition of the human cytosolic isozymes I and II and transmembrane tumor-associated isozymes IX and XII” (Eur J Med Chem, 2013)
